Here are results for seven compounds from patent US4547502A, “Dihydropyridines and their use in treating cardiac conditions and hypertension” (Pfizer Inc., priority 1982, dated 1985).

The test system of this test is spirally cut strips of rat aorta. The test can be described thus: Inhibition of calcium-induced contraction of isolated rat aorta strips (concentration required to reduce the response by 50%). Format: cell-based. The settings on record: 0.75 h, in vitro, 45 millimolar potassium, contraction by calcium chloride, final calcium 2 millimolar, retest after 45 minutes with compound present, read-out: IC50 (molar concentration of the compounds required to reduce the response by 50%). On the procedure:
The ability of the compounds to inhibit the movement of calcium into the cell is shown by their effectiveness in reducing the response of isolated […] to an increase in calcium ion concentration in vitro. The test is performed by mounting spirally cut strips of rat aorta with one end fixed and the other attached to a force tranducer. The tissue is immersed in a bath of physiological saline solution containing potassium ions at a concentration of 45 millimolar and no calcium. Calcium chloride is added to the bath with a pipette to give a final calcium ion concentration of 2 millimolar. The change in tension caused by the resulting contraction of the tissue is noted. The bath is drained and replaced with fresh saline solution and, after 45 minutes, the test is repeated with the particular compound under test present in the saline solution. The concentration of compound required to reduce the response by 50% is recorded.
For the compound `CCOC(=O)C1=C(COCCN2CCN(c3nc(N)nn3C)CC2)NC(C)=C(C(=O)OC)C1c1ccccc1Cl` (single isomer, unassigned) [Example 6 (more polar isomer), 2-[2-(4-{3-amino-1-methyl-1,2,4-triazol-5-yl}-piperazin-1-yl)ethoxymethyl]-4-(2-chlorophenyl)-3-ethoxycarbonyl-5-methoxycarbonyl-6-methyl-1,4-dihydropyridine hemihydrate], the IC50 came out at 100 nM.
As for `CCOC(=O)C1=C(COCCN2CCN(C3=NCCC3)CC2)NC(C)=C(C(=O)OC)C1c1ccccc1Cl` (stereo not shown) [Example 1, 2-[2-(4-(1-Pyrrolin-2-yl)-piperazin-1-yl)ethoxymethyl]-4-(2-chlorophenyl)-3-ethoxycarbonyl-5-methoxycarbonyl-6-methyl-1,4-dihydropyridine], the figure is 141 nM; as for `CCOC(=O)C1=C(COCCN2CCN(C3=NCCN3)CC2)NC(C)=C(C(=O)OC)C1c1ccccc1Cl` (stereo not shown) [Example 2], 100 nM.
In the case of `CCOC(=O)C1=C(COCCN2CCN(c3nccc(=O)[nH]3)CC2)NC(C)=C(C(=O)OC)C1c1ccccc1Cl` (stereo not shown) [Example 3] it was 36 nM; in that of `CCOC(=O)C1=C(COCCN2CCN(c3nccs3)CC2)NC(C)=C(C(=O)OC)C1c1ccccc1Cl` (stereo not shown) [Example 4], 15 nM; in that of `CCOC(=O)C1=C(COCCN2CCN(c3nc(N)n[nH]3)CC2)NC(C)=C(C(=O)OC)C1c1ccccc1Cl` (stereo not shown) [Example 5, 2-{2-[4-(5-Amino-1,2,4-triazol-3-yl)piperazine-1-yl]ethoxymethyl}-4-(2-chlorophenyl)-3-ethoxycarbonyl-5-methoxycarbonyl-6-methyl-1,4-dihydropyridine, bis-maleate hemihydrate], 38 nM.
As for `CCOC(=O)C1=C(COCCN2CCN(c3nc(N)n(C)n3)CC2)NC(C)=C(C(=O)OC)C1c1ccccc1Cl` (stereo not drawn) [Example 6 (least polar isomer), 2-[2-(4-{5-amino-1-methyl-1,2,4-triazol-3-yl}-piperazin-1-yl)ethoxymethyl]-4-(2-chlorophenyl)-3-ethoxycarbonyl-5-methoxycarbonyl-6-methyl-1,4-dihydropyridine], the figure is 26 nM.
